Experimental data reported in patent US5444069A, “Imidazo-pyridine angiotensin II antagonists used to treat memory loss” (Warner-Lambert Company, priority 1994, dated 1995).

Tests used:
[1] = molecular target: T1, AT2 receptor (rabbit uterus receptor preparations) (Oryctolagus cuniculus, UniProt G1T351); assay: displacement of 3H-angiotensin II from rabbit uterus receptor preparations; assay type: binding; details: read-out: IC50 Values in Rabbit Uterine Preparations
T1 construct: cell membrane preparations derived from rabbit uterus and corpus luteum; from tissue; host or cells: rabbit uterus, cell membrane preparation
T1 sequence (G1T351 1-363): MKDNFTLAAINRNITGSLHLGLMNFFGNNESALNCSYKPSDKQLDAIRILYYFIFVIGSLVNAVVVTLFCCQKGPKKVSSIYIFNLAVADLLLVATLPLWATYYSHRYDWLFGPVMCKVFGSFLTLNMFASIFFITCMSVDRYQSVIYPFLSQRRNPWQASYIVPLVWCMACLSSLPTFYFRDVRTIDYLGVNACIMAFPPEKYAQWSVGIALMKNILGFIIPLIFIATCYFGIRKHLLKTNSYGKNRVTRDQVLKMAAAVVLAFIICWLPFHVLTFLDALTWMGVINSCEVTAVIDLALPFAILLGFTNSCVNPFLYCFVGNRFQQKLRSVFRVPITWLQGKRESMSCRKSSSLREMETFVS
Text: AT2 receptors are known to exist in organs of the female reproductive system. […] More specifically, AT2 receptors are densely located on granulosa cells in atretic follicles of the ovary.

[2] = molecular target: T2, AT2 receptor (whole rat brain) (Rattus norvegicus, UniProt P35351); assay: angiotensin II receptor binding in whole rat brain (DTT protocol); details: whole rat brain; DTT included to eliminate AT1 binding; read-out: IC50 Values in whole Rat Brain Preparations
T2 construct: IC50 Values in whole Rat Brain Preparations; from tissue; host or cells: whole rat brain
T2 sequence (P35351 1-363): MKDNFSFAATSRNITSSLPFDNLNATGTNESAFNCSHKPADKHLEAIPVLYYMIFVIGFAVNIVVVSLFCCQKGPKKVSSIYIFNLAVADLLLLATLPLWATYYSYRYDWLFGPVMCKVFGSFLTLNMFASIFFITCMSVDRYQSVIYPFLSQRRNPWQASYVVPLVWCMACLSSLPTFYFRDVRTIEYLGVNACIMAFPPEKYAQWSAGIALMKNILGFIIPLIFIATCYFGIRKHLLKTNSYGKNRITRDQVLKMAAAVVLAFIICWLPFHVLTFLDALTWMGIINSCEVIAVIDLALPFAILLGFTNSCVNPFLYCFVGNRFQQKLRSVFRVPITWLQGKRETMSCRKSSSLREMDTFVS
Text: Since receptor-specific binding in whole brain is low and is a mixture of two subtypes, an alternative protocol (Bennett and Snyder, Eur. J. Pharmacol., 67, 11-25) was used. This method includes DTT and thereby eliminates binding at AT1 receptors, thus-allowing evaluation of AT2 receptor events.

[3] = whole body autoradiography in rats; assay type: in vivo, rat
Procedure: The iodination was initiated by addition of chloramine-T (30 μg, 132 nMol) that was diluted to a concentration of 0.05 M in the same buffer as above. After shaking at room temperature for one minute the reaction was quenched with sodium metabisulfite (10 mg). […] This labeled material was reconstituted in 5% aqueous dextrose containing 30 mg/mL of the disodium salt of unlabeled Example 12 and adjusted to pH 9 by addition of several μL of 1 mM NaOH.
Male and female Sprague-Dawley rats (Charles River, Wilmington, average weight 281 g) were used in the autoradiography studies. Animals were on a fixed light cycle with unrestricted access to normal rat chow and water prior to the experiment. […] Animals were killed at 15 or 60 minutes postdose by halothane anesthesia and were rapidly frozen in acetone with dry ice. Carcasses were subsequently embedded in methylcellulose ice for whole-body sectioning and autoradiography. Autoradiograms were analyzed by computer assisted densitometry.
Results of the autoradiographical experiments are summarized in Table X. A relative scale of radioactivity is assigned with background equal to 0 and the most dense reading (liver and intestines) equal to 10. […] Another site that is highly labeled is the ovarian follicle. It is the most highly labeled non-excretory organ. All other tissues show weaker radioactivity.

[4] = tested on: angiotensin II induced secretion of AVP; details: isolated rat explants; Schiavone et al., Hypertension 1991; cited from earlier work
[5] = Barnes et al., Neuroreport 1991, cited from earlier work
[6] = tested on: rat striatum acetylcholine (ACh); assay: effect on rat striatal acetylcholine (ACh) levels; assay type: in vivo; details: 0.5 h, ± SEM, vehicle 61.0 ± 2.33, * p < 0.05
Procedure: ACh concentrations were determined as described below. Each
Results were analyzed by a oneway

[7] = tested on: angiotensin II receptors (AT1/AT2) of granulosa cell; details: 1 μM; 125I-angiotensin II; adapted from Pucell et al., Endocrinology 1991; cited from earlier work
[8] = tested on: angiotensin II receptors (AT1/AT2) of corpus luteum; assay: inhibition of 125I-angiotensin II binding, corpus luteum; design: species or system rabbit
[9] = tested on: angiotensin II receptors (AT1 and AT2), rat brain regions; assay: displacement of 125I-angiotensin II from receptor preparations of rat brain regions; assay type: binding; details: antagonist 10 μM
Procedure: The concentration of all three antagonist compounds in these experiments is 1 μM (above the maximal effect concentration).

[10] = 30 mg/kg i.v. rat, scale 0-10, represents excretion

O=C(O)[C@@H]1Cc2c(ncn2Cc2ccccc2)CN1C(=O)C(c1ccccc1)c1ccccc1 [Example 8, (S)-(-)-5-(diphenylacetyl)-4,5,6,7-tetrahydro-1-(phenylmethyl)-1H-imidazo[4,5-c]pyridine-6-carboxylic acid]
IC50 [1]: 74 nM | IC50 [2]: 3800 nM

Cc1cc(Cn2cnc3c2C[C@@H](C(=O)O)N(C(=O)C(c2ccccc2)c2ccccc2)C3)cc([125I])c1O [^125 CI-Example 12]
Relative Radioactivity, Adrenal ([3]; 30 mg/kg i.v. rat, scale 0-10): 3 | Relative Radioactivity, Blood ([3]; 30 mg/kg i.v. rat, scale 0-10): 4 | Relative Radioactivity, Heart ([3]; 30 mg/kg i.v. rat, scale 0-10): 3 | Relative Radioactivity, Kidney ([3]; 30 mg/kg i.v. rat, scale 0-10): 4-8 | Relative Radioactivity, Lung ([3]; 30 mg/kg i.v. rat, scale 0-10): 4 | Relative Radioactivity, Ovarian follicle ([3]; 30 mg/kg i.v. rat, scale 0-10): 9 | Relative Radioactivity, Ovary (non-follicular) ([3]; 30 mg/kg i.v. rat, scale 0-10): 3-5 | Relative Radioactivity, Salivary gland ([3]; 30 mg/kg i.v. rat, scale 0-10): 6-7 | Relative Radioactivity, Thymus ([3]; 30 mg/kg i.v. rat, scale 0-10): 3 | Relative Radioactivity, Uterus ([3]; 30 mg/kg i.v. rat, scale 0-10): 2-3 | Relative Radioactivity, Bladder [3, 10]: 4-6 | Relative Radioactivity, Intestines [3, 10]: 10 | Relative Radioactivity, Liver [3, 10]: 10 | Relative Radioactivity, Testicle ([3]; 30 mg/kg i.v. rat, scale background 0 to most dense 10): 1-2

COc1ccc(Cn2cnc3c2C[C@@H](C(=O)O)N(C(=O)C(c2ccccc2)c2ccccc2)C3)cc1C [Example 3, (S)-(-)-5-(diphenylacetyl)-4,5,6,7-tetrahydro-1-[(4-methoxy-3-methyl-phenyl)methyl]-1H-imidazo[4,5-c]pyridine-6-carboxylic acid]
IC50 [1]: 26 nM

Cc1cc(Cn2cnc3c2C[C@@H](C(=O)O)N(C(=O)C(c2ccccc2)c2ccccc2)C3)cc(I)c1O [Example 12, (S)-(-)-5-(diphenylacetyl)-1-[(4-hydroxy-3-iodo-5-methylphenyl)methyl]-4,5,6,7-tetrahydro-1H-imidazo[4,5-c]pyridine-6-carboxylic acid]
IC50 [1]: 25 nM | IC50 [2]: 570 nM | tissue distribution (in words) ([3]; rat, autoradiography): selectively distribute to the ovarian follicle

Cc1cccc(Cn2cnc3c2C[C@@H](C(=O)O)N(C(=O)C(c2ccccc2)c2ccccc2)C3)c1 [Example 16, (S)-(-)-5-(diphenylacetyl)-4,5,6,7-tetrahydro-1-[(3-methylphenyl)methyl]-1H-imidazo[4,5-c]pyridine-6-carboxylic acid]
IC50 [2]: 1600 nM

COc1ccc(Cn2cnc3c2C[C@@H](C(=O)O)N(C(=O)C2c4ccccc4-c4ccccc42)C3)cc1C [Example 6]
IC50 [1]: 1200 nM

Cc1cc(Cn2cnc3c2C[C@@H](C(=O)O)N(C(=O)C(c2ccccc2)c2ccccc2)C3)ccc1N [Example 2, (S)-(-)-1-[(4-amino-3-methylphenyl)-methyl]-5-(diphenylacetyl)-4,5,6,7-tetrahydro-1H-imidazo[4,5-c]pyridine-6-carboxylic acid]
IC50 [1]: 32 nM | antagonism of angiotensin II induced AVP secretion [4]: antagonizing the angiotensin II induced secretion of AVP | reversal of scopolamine-induced amnesia [5]: reverses scopalamine-induced amnesia | cognition enhancement ([5]; rodent behavioral models): does indeed possess cognition enhancing actions in rodent behavioral models

CCCCc1nc(Cl)c(CO)n1Cc1ccc(-c2ccccc2-c2nn[nH]n2)cc1 [DUP 753, reference compound]
ACh concentration, rat striatum ([6]; 30 mg/kg IP): 67.5 ± 5.71 nM/g | % Inhibition with 1 μM Antagonist, Granulosa cell [7]: 3% | % Inhibition with 1 μM Antagonist, Corpus luteum ([8]; 1 μM, 125I-angiotensin II, data from Warner-Lambert Co.): 97% | displacement of 125I-angiotensin II, corpus luteum (in words) ([8]; Table IX): displaces nearly all of the radioligand

O=C(CCCN1CCC(O)(c2ccc(Cl)cc2)CC1)c1ccc(F)cc1 [Haloperidol, haloperidol, reference compound]
ACh concentration, rat striatum ([6]; 2 mg/kg IP): 36.9 ± 3.27 nM/g

Cc1cc(Cn2cnc3c2C[C@@H](C(=O)O)N(C(=O)C(c2ccccc2)c2ccccc2)C3)ccc1[N+](=O)[O-] [Example 7]
IC50 [1]: 67 nM

Cc1cc(Cn2cnc3c2C[C@@H](C(=O)O)N(C(=O)C(c2ccc(F)cc2)c2ccc(F)cc2)C3)ccc1N(C)C [Example 5, (S)-(-)-5-[bis(4-fluorophenyl)acetyl)-1-[[4-(dimethylamino)-3-methyl-phenyl]methyl]-4,5,6,7-tetrahydro-1H-imidazo[4,5-c]pyridine-6-carboxylic acid]
IC50 [1]: 38 nM

CC(=O)Nc1ccc(Cn2cnc3c2C[C@@H](C(=O)O)N(C(=O)C(c2ccccc2)c2ccccc2)C3)cc1C [Example 11, (S)-(-)-[[4-(acetylamino)-3-methylphenyl]methyl]-5-(diphenylacetyl)-4,5,6,7-tetrahydro-1H-imidazo-[4,5-c]pyridine-6-carboxylic acid]
IC50 [1]: 150 nM

O=C(O)[C@@H]1Cc2c(ncn2CCC23CC4CC(CC(C4)C2)C3)CN1C(=O)C(c1ccccc1)c1ccccc1 [Example 4]
IC50 [1]: 91 nM | IC50 [2]: 180 nM

COc1ccc(Cn2cnc3c2C[C@@H](C(=O)O)N(C(=O)Cc2ccccc2)C3)cc1C [Example 9, (S)-(-)-4,5,6,7-tetrahydro-1-[(4-methoxy-3-methylphenyl)methyl]-5-(phenylacetyl)-1H-imidazo-[4,5-c]pyridine-6-carboxylic acid]
IC50 [1]: 95 nM

CNCC(=O)N[C@@H](CCCN=C(N)N)C(=O)N[C@H](C(=O)N[C@@H](Cc1ccc(O)cc1)C(=O)N[C@H](C(=O)N[C@@H](Cc1cnc[nH]1)C(=O)N1CCC[C@H]1C(=O)N[C@@H](C)C(=O)O)C(C)C)C(C)C [SAR, saralasin, reference compound]
125I-Angiotensin II Bound, Brain Stem ([9]; rat brain stem, total 2124): 288 cpm | 125I-Angiotensin II Bound, Cerebellum ([9]; rat cerebellum, total 571): 269 cpm | 125I-Angiotensin II Bound, Cortex ([9]; rat cortex, total 766): 336 cpm | 125I-Angiotensin II Bound, Cortical Neurons ([9]; rat cortical neurons, total 2647): 293 cpm | 125I-Angiotensin II Bound, Striatal Membrane ([9]; rat striatal membrane, total 2462): 1295 cpm

O=C(O)[C@@H]1Cc2c(ncn2Cc2ccc(C(F)(F)F)cc2)CN1C(=O)C(c1ccccc1)c1ccccc1 [Example 15, (S)-(-)-5-(diphenylacetyl)-4,5,6,7-tetrahydro-1-[[4-(trifluoromethyl)-phenyl]methyl]-1H-imidazo[4,5-c]pyridine-6-carboxylic acid]
IC50 [2]: 780 nM

COc1ccc(Cn2cnc3c2C[C@@H](C(=O)O)N(C(=O)C(c2ccc(Cl)cc2)c2ccc(Cl)cc2)C3)cc1C [Example 10, (S)-(-)-5-[bis(4-chlorophenyl)acetyl]-4,5,6,7-tetrahydro-1-[(4-methoxy-3-methylphenyl)methyl]-1H-imidazo-[4,5-c]pyridine-6-carboxylic acid]
IC50 [1]: 120 nM
